Assay results taken from patent US5036045A, “Method for increasing growth hormone secretion” (The University of Virginia Alumni Patents Foundation, priority 1988, dated 1991).

What was measured:
[1] = tested on: growth; settings: normal rat, cited from earlier work
[2] = tested on: growth hormone secretion; settings: cited from earlier work
[3] = tested on: growth hormone secretion; test: 6 hour infusion followed by insulin (hypoglycemia) stimulus; type: in vivo, human; settings: insulin given at the end, compared to hypoglycemia after vehicle infusion
Method: (§1) In a most recent study the 6 hour infusion was repeated but insulin was given at the end of the infusion to provide an alternate stimulus (hypoglycemia) for growth hormone secretion compared to hypoglycemia after vehicle infusion. […] Next 24 hour infusions of growth hormone releasing factor were performed and the growth hormone and growth hormone releasing factor secretory profile of a patient were studied with ectopic growth hormone releasing factor secretion (Vance et al, J. Clin. Invest., 1985, 75, 1584-1590). In this patient growth hormone secretion was pulsatile despite continuously elevated immunoreactive growth hormone releasing factor levels. To determine if pulsatile growth hormone secretion is maintained in normal subjects, vehicle or growth hormone releasing factor-40, 2 ng/kg/min, was administered to six healthy young men for 24 hours and gave a supramaximal intravenous bolus dose of growth hormone releasing factor-40, 3 μg/kg after 23.5 hours of infusion.

[4] = tested on: growth hormone secretion; test: 14-day continuous intravenous infusion by mechanical pump, 24 hour growth hormone profile; type: in vivo, human; settings: 10 ng/kg/min intravenous over 14 days, 4 subjects
Method: Growth hormone releasing factor was administered by mechanical pump which delivered a dose of 10 ng/kg/min by the intravenous route over 14 days in 4 subjects aged 26 to 31 years. The profile of growth hormone secretion was measured over 24 hours before the initiation of the infusion, on the fourteenth day of the infusion, and two weeks after stopping the infusion.

[5] = adverse effects of continuous administration; type: in vivo
[6] = tested on: growth hormone secretion; test: 24 hour infusion in healthy young men with supramaximal bolus after 23.5 hours; type: in vivo, human; settings: 2 ng/kg/min for 24 hours, six healthy young men
Method: as §1

[7] = tested on: growth hormone secretion; settings: after 6 hours infusions of 1, 3.3 and 10 ng/kg/min; cited from earlier work

Row | Substance | growth, continuous administration ([1]; continuous administration) | growth, pulsatile administration ([1]; pulsatile administration) | release of growth hormone in response to supramaximal dose at end of infusion ([2]; end of the 6 or 24 hour infusion) | growth hormone secretion over the duration of the infusion ([2]; short-term administration (6-24 hours)) | desensitization to growth hormone releasing factor [3] | response to a supramaximal dose of growth hormone releasing factor [4] | growth hormone secretion ([4]; measured on fourteenth day of infusion) | serum Insulin Growth Factor-1 (IGF-1) level ([4]; marker of biological activity of growth hormone) | blood pressure, pulse rate, body temperature [5] | side effects [5] | effect on naturally occuring growth hormone pulses [6] | growth hormone secretion compared to vehicle infusion [6] | pulsatile growth hormone secretion during infusion [6] | growth hormone response to supramaximal bolus at end of infusion [7]
1 | growth hormone releasing factor | does not | accelerates growth | reduced release of growth hormone | stimulates growth hormone secretion intermittently | partial homologous desensitization | normal or accentuated responses | augmented growth hormone secretion | rise in serum Insulin Growth Factor-1 (IGF-1) level | No changes in blood pressure, pulse rate, or body temperature | no side effects | – | – | – | –
2 | growth hormone releasing factor-40 (YADAIFTNSYRKVLGQLSARKLLQDIMSRQQGESNQERGA; Somatoliberin; UniProt P01286 32-71, looked up, fragment) [40 amino acid form of human growth hormone releasing factor] | – | – | – | – | – | – | – | – | – | – | augmentation of naturally occuring growth hormone pulses | greater growth hormone secretion than did vehicle infusion | pulsatile growth hormone secretion was maintained | inversely related to the 6 hour infusion dose
